Experiment: MTT cell viability assay, compounds at 5, 1 and 0.2 μM, 48 hours
Format: cell-based
Details: human, A549 tumor cells
Experimental: MTT assay is used to determine cell proliferation, percent of viable cells, and cytotoxicity. MTT (3-[4,5-dimethylthiazol-2-yl]2,5-diphenyltetrazolium bromide) is a yellow dye, which can be absorbed by the living cells and be reduced to purplish blue formazan crystals by succinate tetrazolium reductase in mitochondria. Formazan formation can therefore be used to assess and determine the survival rate of cells.
Tumor cells (A549) were plated at 2500 cells/well of a 96-well plate in complete growth medium (DMEM+10% FBS, antibiotic/antimycotic, fungizone, L-glutamine, sodium pyruvate, and non-essential amino acids). The cells were allowed to grow overnight. After cell proliferation, the cells were washed and re-suspended in fresh culture medium and placed in 96 well plates.
To each of the 96 well plates containing A549 and a control, 5, 1, and 0.2 μM of the exemplary compounds 1-200 were add. The 96 well plates were incubated for 48 hours. Cell viability was measured by adding MTT (Sigma) at 5 mg/ml for 4 h to the cells and then removing the medium and resuspending each well in 50 μl DMSO to solubilize the crystals. The 96-well plates were read on a plate-scanning spectrophotometer (BioTek) at an absorbance of […]. The survival rate of cells was calculated based on the measurement of absorption at the 570 nm wavelength by enzyme immunoassay analyzer.

Row | Structure (SMILES) | viability at 48 h, 0.2 µM | viability at 48 h, 1 µM | viability at 48 h, 5 µM
1 | Nc1cc(Oc2ccc(-c3nnc(Nc4cccc(C(F)(F)F)c4)[nH]3)cc2)c2ccccc2n1 [Compound 69] | > 70% | > 70% | > 70%
2 | Cc1nc(C(F)(F)F)nc(Oc2ccc(-c3nnc(Nc4cccc(C(F)(F)F)c4)[nH]3)cc2)c1C [Compound 157] | > 70% | > 70% | > 70%
3 | Nc1cc(Oc2ccc(-c3nnc(Nc4cccc(C(F)(F)F)c4)[nH]3)cc2)ncn1 [Compound 2] | > 70% | > 70% | > 70%
4 | Cc1nc(N)cc(Oc2ccc(-c3nnc(Nc4cccc(C(F)(F)F)c4)[nH]3)cc2)n1 [Compound 82] | > 70% | > 70% | 50 to 70%
5 | O=c1cc(COc2cccc(-c3nnc(Nc4cccc(C(F)(F)F)c4)[nH]3)c2)c2ccccc2[nH]1 [Compound 171] | > 70% | > 70% | > 70%
6 | FC(F)(F)c1cccc(Nc2nnc(-c3cccc(Oc4ccncc4)c3)o2)c1 [Compound 37] | > 70% | > 70% | > 70%
7 | Cc1cc(Oc2ccc(-c3nnc(Nc4cccc(C(F)(F)F)c4)[nH]3)cc2)c2ccccc2n1 [Compound 158] | > 70% | > 70% | 50 to 70%
8 | FC(F)(F)c1cccc(Nc2nnc(-c3ccc(Oc4ccnc5cc(OCc6ccccc6)ccc45)cc3)[nH]2)c1 [Compound 187] | > 70% | > 70% | > 70%
9 | CCc1nc(N)cc(Oc2cccc(-c3nnc(Nc4cccc(C(F)(F)F)c4)[nH]3)c2)n1 [Compound 99] | > 70% | > 70% | 50 to 70%
10 | COc1ccc2c(Oc3ccc(-c4nnc(Nc5cccc(C(F)(F)F)c5)[nH]4)cc3)ncnc2c1 [Compound 70] | > 70% | > 70% | < 50%
11 | COc1ccc2nccc(Oc3ccc(-c4nnc(Nc5cccc(C(F)(F)F)c5)[nH]4)cc3)c2c1 [Compound 185] | > 70% | > 70% | > 70%
12 | CSc1nc(N)cc(Oc2ccc(-c3nnc(Nc4cc(C)ccc4F)[nH]3)cc2)n1 [Compound 121] | > 70% | 50 to 70% | < 50%
13 | COc1ccc2c(Oc3cccc(-c4nnc(Nc5cccc(C(F)(F)F)c5)s4)c3)ccnc2c1 [Compound 49] | > 70% | > 70% | 50 to 70%
14 | Cc1nccc(Oc2cccc(-c3nnc(Nc4cccc(C(F)(F)F)c4)[nH]3)c2)n1 [Compound 55] | 50 to 70% | 50 to 70% | < 50%
15 | COc1nccc(Oc2ccc(-c3nnc(Nc4cccc(C(F)(F)F)c4)[nH]3)cc2)n1 [Compound 71] | > 70% | > 70% | 50 to 70%
16 | Nc1nc(OCC2CC2)cc(Oc2ccc(-c3nnc(Nc4cccc(C(F)(F)F)c4)[nH]3)cc2)n1 [Compound 84] | > 70% | > 70% | > 70%
17 | FC(F)(F)c1cccc(Nc2nnc(-c3ccc(Oc4ccncc4)cc3)o2)c1 [Compound 29] | > 70% | > 70% | 50 to 70%
18 | CSc1nc(N)cc(Oc2ccc(-c3nnc(Nc4cc(C)ccc4C)[nH]3)cc2)n1 [Compound 67] | 50 to 70% | < 50% | < 50%
19 | CSc1nc(N)cc(Oc2ccc(-c3nnc(Nc4ccc5c(c4)-c4ccccc4C5)[nH]3)cc2)n1 [Compound 136] | > 70% | 50 to 70% | < 50%
20 | COc1cc(Oc2ccc(-c3nnc(Nc4cccc(C(F)(F)F)c4)[nH]3)cc2)ccn1 [Compound 73] | > 70% | > 70% | < 50%
21 | COc1cc(-c2nnc(Nc3cccc(C(F)(F)F)c3)[nH]2)ccc1Oc1cc(N)nc(SC)n1 [Compound 109] | > 70% | > 70% | < 50%
22 | FC(F)(F)c1cccc(Nc2nnc(-c3ccc(Oc4ccncc4)c(Cl)c3)[nH]2)c1 [Compound 103] | > 70% | > 70% | 50 to 70%
23 | N#Cc1ccc2c(Oc3ccc(-c4nnc(Nc5cccc(C(F)(F)F)c5)[nH]4)cc3)ccnc2c1 [Compound 189] | > 70% | > 70% | > 70%

Reference: patent US9212151B2, “Heterocyclic compounds useful for kinase inhibition” (Amitech Therapeutic Solutions, Inc., priority 2010, dated 2015)
